In paper PMC9698340, “Discovery and SAR Study of Quinoxaline–Arylfuran Derivatives as a New Class of Antitumor Agents” (Pharmaceutics, 2022):

Experiments:
[1] = test system: PC3 cells; experiment: CCK-8 antiproliferation assay, PC3; type: cell-based; details: Homo sapiens, PC-3, 48 h
Description: (§1) Human lung carcinoma cell lines A549, human cervical cancer cell lines HeLa, human prostate cancer cell lines PC3, human colorectal carcinoma cell lines HCT116, and human liver cells L02 were purchased from the Chinese Academy of Sciences Shanghai Cell Bank (Shanghai, China). HeLa, A549, PC3, HCT116, and L02 cells were cultured in DMEM Dulbecco’s Modified Eagle Medium (DMEM; Gibco Inc., Gaithersburg, MD, USA). All cultures were provided with 10% fetal bovine serum (FBS; YHSM, Beijing, China), 100 IU/mL penicillin, and 100 μg/mL streptomycin, and cells were incubated at 37 °C in an atmosphere of 5% CO2.
(§2) Cell viability was determined using a CCK-8 kit (Apexbio, Houston, TX, USA). […] Subsequently, absorbance was assessed at 450 nm. Three duplicates were set in each group.
(§3) All synthesized quinoxalines compounds were tested for in vitro cytotoxicity against four cancer cell lines (HeLa, PC3, A549, and HCT116). The inhibitory effects of these compounds were evaluated using the CCK-8 assay after treatment with 20 μM of each compound. […] The species of phenyl substituents have a significant effect on the activity. […] By comparison, hydrophobic substitution at the phenyl ring gave derivatives with relatively low potency (QW7–8). In addition, large substituents on the phenyl ring exerted an unfavorable influence on the potency of the compounds (QW8 and QW16).

[2] = test system: HCT116 cells; experiment: CCK-8 antiproliferation assay, HCT116; type: cell-based; details: Homo sapiens, HCT-116, 48 h
Description: as §1, §2, §3

[3] = test system: L02 cells; experiment: CCK-8 cytotoxicity against normal hepatocytes L02; type: cell-based; details: Homo sapiens, 48 h, read-out: IC50 ± SD, L02 (human normal hepatocytes)
Description: as §1, §2
To further evaluate the anticancer effect of QW12, we evaluated its cytotoxicity against four human cancer cell lines: HeLa (Human cervical tumor), PC3 (Human prostate tumor), HCT116 (Human colorectal carcinomas), and A549 (Human lung carcinoma). […] Furthermore, the IC50 values of QW12 against PC3 and HCT116 were similar to those of nifuroxazide.

[4] = test system: HeLa cells; experiment: Colony formation (plate-cloning) assay; type: cell-based, human; details: different concentrations, 24 h treatment
Description: HeLa cells were digested and seeded directly in 6-well plates (1 × 10^3 cells/well) for the colony-formation assay and cultured in the presence of 10% FBS and 1% penicillin/streptomycin at 37 °C with 5% CO2 for 12 h in confluent cell monolayers. The cells were then treated with QW12 at the indicated concentrations for 24 h. Two weeks later, the medium was removed, and the plates were washed with phosphate-buffered saline (PBS) three times. Cells were fixed with anhydrous ethanol for 30 min and then stained with Giemsa dye solution (Solarbio) for 30 min. The plates were dried with a blower to ensure high-quality images were obtained. Colonies were defined as >50 cells/colony.

[5] = test system: HeLa cells; experiment: Intracellular ROS, DCFH-DA flow cytometry; type: cell-based, human; details: 10 and 40 μM, 6 h
Description: Intracellular reactive oxygen species (ROS) were measured by 2,7-dichlorofluorescein diacetate (DCFH-DA) staining. HeLa cells were treated with QW12 at 10 μM and 40 μM for 6 h. After indicated treatment, cells were harvested and washed with PBS. Cells were incubated with 10 μM DCFH-DA at 37 °C for 30 min. Cells were washed twice, resuspended with PBS, and subjected to flow cytometry.

[6] = test system: STAT3 phosphorylation (Y705) in HeLa cells; experiment: Western blot of STAT3 Y705 phosphorylation; type: cell-based, human; details: 12 h
Description: HeLa cells were seeded in a 6-well plate overnight and treated with QW12 for 24 h. The cells were then harvested and washed with cold PBS and lysed with RIPA buffer supplemented with a protease and phosphatase inhibitor cocktail. Protein concentration was measured using a BCA protein assay kit (Boster Biological Technology Co., Ltd., Wuhan, China). Proteins were separated by 10% SDS-PAGE gel and transferred onto polyvinylidene difluoride (PVDF) membranes (Millipore Co., Billerica, MA, USA). After blocking with 5% mild in PBST for 1 h at room temperature, membranes were incubated with specific primary antibodies against STAT3 (#ET1605-45), Bcl-2 (#ET1603-11), Bax (#ET1603-34), or GAPDH (#HA721136) overnight at 4 °C. The above antibodies were purchased from HUABIO, China. Phospho-STAT3 (Tyr 705) (#9145S) and anti-rabbit IgG, HRP-linked antibody (#7074S) were purchased from Cell Signaling Technology, Inc. America. […]
The activation of STAT3 is tightly regulated during various physiological processes, and the aberrant and persistent activation of STAT3 has been found in various types of cancer. […] Western blot analysis determined whether QW12 could also regulate the STAT3 signaling pathway in HeLa cells. HeLa cells were treated with QW12 for 12 h, and total cell lysates were prepared; Y705-phosphorylated STAT3 proteins were detected using a specific antibody.

[7] = test system: phosphorylated AKT (T308) in HeLa cells; experiment: Western blot of AKT (T308) phosphorylation; type: cell-based, human; details: total AKT not affected, reversed by NAC

SMILES: COc1cc(-c2ccc(/C=N/NC(=O)c3ccc(O)cc3)o2)c(OC)cc1-c1ccc2nccnc2c1 [QW12, (E)-N’-((5-(2,5-dimethoxy-4-(quinoxalin-6-yl)phenyl)furan-2-yl)methylene)-4-hydroxybenzohydrazide]
- inhibition at 20 µM ([1]; 20 μM, CCK-8, mean ± SD, read-out: Inhibition Rate (%) at 20 μM, PC3): 52.55 ± 0.47%
- IC50 ([1]; CCK-8, read-out: IC50 ± SD, PC3): 12.7 ± 0.57 µM
- inhibition at 20 µM ([2]; 20 μM, CCK-8, mean ± SD, read-out: Inhibition Rate (%) at 20 μM, HCT116): 65.43 ± 0.27%
- IC50 ([2]; CCK-8, read-out: IC50 ± SD, HCT116): 12.2 ± 0.25 µM
- IC50 [3]: > 50 µM
- effect on proliferation in plate-cloning assay [4]: proliferated at a significantly lower rate than the control
- effect on ROS accumulation [5]: stimulates ROS accumulation in a dose-dependent manner
- effect on STAT3 Tyr705 phosphorylation [6]: inhibited Tyr705 phosphorylation in a dose-dependent manner
- effect on total STAT3 level [6]: also decreased
- effect on phosphorylated AKT levels (T308) [7]: significantly decreased
